Calls of active or inactive are those of the source. The calls are words filed in the database; no cut-off is given here.
Target: T1, Tyrosine-protein phosphatase non-receptor type 1 (Homo sapiens) (UniProt P18031)
T1 sequence (whole entry): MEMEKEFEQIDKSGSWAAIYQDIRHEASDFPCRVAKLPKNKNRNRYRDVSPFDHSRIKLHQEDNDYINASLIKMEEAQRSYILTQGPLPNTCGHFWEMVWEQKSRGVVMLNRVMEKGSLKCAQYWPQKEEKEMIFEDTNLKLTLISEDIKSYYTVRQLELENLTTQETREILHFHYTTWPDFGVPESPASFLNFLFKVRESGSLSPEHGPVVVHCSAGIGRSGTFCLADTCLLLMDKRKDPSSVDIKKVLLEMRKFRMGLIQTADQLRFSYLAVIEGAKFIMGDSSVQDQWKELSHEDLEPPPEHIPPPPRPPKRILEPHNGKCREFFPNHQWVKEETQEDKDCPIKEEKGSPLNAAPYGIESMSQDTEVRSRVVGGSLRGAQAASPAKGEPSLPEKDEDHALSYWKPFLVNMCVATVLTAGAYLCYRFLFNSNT
Experiment: Mixed type inhibition of human recombinant PTP1B at 30 uM by Lineweaver-Burke plot analysis

- inhibition: Active
SMILES: COc1cc(O)cc2occ(-c3cc(O)c(O)c(CC=C(C)C)c3)c(=O)c12
